The nature of data set [1]: Protein binding in human serum. The format is ADME, cell-free. As to conditions: read-out: PB (converted).
The target of data set [2] is T1, Oxytocin receptor (Rattus norvegicus, UniProt P70536).
T1 sequence (P70536 whole entry): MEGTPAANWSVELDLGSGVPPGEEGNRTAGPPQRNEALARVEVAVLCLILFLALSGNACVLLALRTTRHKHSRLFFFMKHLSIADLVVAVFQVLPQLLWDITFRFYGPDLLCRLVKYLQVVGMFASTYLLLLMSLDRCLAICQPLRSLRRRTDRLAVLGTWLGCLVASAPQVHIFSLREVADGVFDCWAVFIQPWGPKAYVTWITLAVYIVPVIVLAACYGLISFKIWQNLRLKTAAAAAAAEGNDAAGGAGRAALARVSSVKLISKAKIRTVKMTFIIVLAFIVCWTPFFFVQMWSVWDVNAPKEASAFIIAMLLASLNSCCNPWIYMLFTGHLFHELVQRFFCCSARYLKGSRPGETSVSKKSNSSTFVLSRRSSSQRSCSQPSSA
Description: Displacement of [3H]-oxytocin from rat oxytocin receptor expressed in CHO cells. The format is cell-based. Background: Displacement assays read how much labelled ligand stays bound in the presence of the test substance.

Data set [3] in a line: Oral bioavailability in rat. The format is ADME, organism-based. Conditions: in vivo.
Data set [4] concerns the target Vasopressin V1a receptor (Homo sapiens, UniProt P37288). Description: Displacement of [3H]vasopressin from human vasopressin V1a receptor expressed in CHO cells. In kind it is cell-based.
In data set [5] the test system is Rattus norvegicus. Description: Inhibition of oxytocin-induced uterine contraction in pregnant rat at 60 mg/kg, po. The format is functional.
In data set [6] the test system is Rattus norvegicus. Description: Inhibition of oxytocin-induced uterine contraction in non-pregnant rat at 30 mg/kg, po. The format is functional.
Data set [7] concerns Rattus norvegicus. Description: Inhibition of oxytocin-induced uterine contraction in po dosed rat. In kind it is functional.
The target of data set [8] is T1, Oxytocin receptor. The data set is described as follows: Antagonist activity at oxytocin receptor in rat uterine strips assessed as inhibition of oxytocin-induced contraction. In kind it is functional. Conditions: read-out: pA2 (converted).
The target of data set [9] is Vasopressin V2 receptor (Rattus norvegicus, UniProt Q00788). The data set is described as follows: Displacement of [3H]vasopressin from rat vasopressin V2 receptor in kidney tissue.
Vasopressin V2 receptor (Rattus norvegicus, UniProt Q00788), sequence (Q00788 whole entry): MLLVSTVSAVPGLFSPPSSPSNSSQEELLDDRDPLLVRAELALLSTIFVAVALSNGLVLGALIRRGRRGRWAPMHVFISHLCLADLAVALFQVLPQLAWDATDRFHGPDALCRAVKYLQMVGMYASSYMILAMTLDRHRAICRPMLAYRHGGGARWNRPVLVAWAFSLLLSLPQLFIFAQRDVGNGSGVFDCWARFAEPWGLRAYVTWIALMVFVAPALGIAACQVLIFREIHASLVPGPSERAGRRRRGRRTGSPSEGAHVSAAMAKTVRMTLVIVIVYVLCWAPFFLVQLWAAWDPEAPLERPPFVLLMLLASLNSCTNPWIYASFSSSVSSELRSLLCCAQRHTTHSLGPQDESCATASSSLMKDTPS
Data set [10] deals with Vasopressin V1a receptor (Rattus norvegicus, UniProt P30560). The data set is described as follows: Displacement of [3H]vasopressin from rat vasopressin V1a receptor in liver tissue.
Vasopressin V1a receptor (Rattus norvegicus, UniProt P30560), sequence (P30560 whole entry): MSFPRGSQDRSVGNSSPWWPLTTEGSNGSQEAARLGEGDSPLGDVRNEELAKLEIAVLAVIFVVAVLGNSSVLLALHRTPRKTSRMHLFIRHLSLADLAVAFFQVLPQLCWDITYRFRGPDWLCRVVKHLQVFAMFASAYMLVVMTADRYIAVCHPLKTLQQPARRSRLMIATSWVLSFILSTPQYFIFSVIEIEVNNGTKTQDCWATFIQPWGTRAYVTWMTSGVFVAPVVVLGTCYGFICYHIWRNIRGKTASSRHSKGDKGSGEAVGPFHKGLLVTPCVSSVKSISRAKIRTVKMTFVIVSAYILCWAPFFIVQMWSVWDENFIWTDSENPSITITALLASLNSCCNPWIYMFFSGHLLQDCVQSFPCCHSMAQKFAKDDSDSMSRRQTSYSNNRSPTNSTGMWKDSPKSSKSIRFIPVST
Data set [11] deals with Vasopressin V2 receptor (Homo sapiens, UniProt P30518). Description: Displacement of [3H]vasopressin from human vasopressin V2 receptor expressed in CHO cells. In kind it is cell-based.
Vasopressin V2 receptor (Homo sapiens, UniProt P30518), sequence (P30518 whole entry): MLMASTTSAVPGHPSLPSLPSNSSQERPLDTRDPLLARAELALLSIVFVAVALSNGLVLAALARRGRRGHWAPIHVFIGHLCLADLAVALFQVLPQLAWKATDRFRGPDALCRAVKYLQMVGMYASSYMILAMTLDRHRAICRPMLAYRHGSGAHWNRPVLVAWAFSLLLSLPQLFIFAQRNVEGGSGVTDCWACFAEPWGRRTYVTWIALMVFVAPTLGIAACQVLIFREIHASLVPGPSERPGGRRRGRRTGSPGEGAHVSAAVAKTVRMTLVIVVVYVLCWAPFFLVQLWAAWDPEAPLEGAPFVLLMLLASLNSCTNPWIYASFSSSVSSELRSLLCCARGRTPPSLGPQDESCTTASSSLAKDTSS
Data set [12] addresses T2, Oxytocin receptor (Homo sapiens, UniProt P30559).
T2 sequence (P30559 whole entry): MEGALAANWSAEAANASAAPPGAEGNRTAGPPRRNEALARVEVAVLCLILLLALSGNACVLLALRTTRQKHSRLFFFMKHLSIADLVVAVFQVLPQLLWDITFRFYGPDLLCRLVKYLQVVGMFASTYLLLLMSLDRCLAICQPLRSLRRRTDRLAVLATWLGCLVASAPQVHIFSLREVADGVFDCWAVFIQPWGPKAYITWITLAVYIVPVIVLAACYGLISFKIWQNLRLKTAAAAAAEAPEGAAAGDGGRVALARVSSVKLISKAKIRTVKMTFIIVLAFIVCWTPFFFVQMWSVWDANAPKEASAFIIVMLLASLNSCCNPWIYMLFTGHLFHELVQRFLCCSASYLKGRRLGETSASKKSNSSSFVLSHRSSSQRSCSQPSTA
Description: Displacement of [3H]-oxytocin from human oxytocin receptor expressed in CHO cells. In kind it is cell-based.

The species named for data set [13] is Homo sapiens. Description: Selectivity ratio of Ki for human oxytocin receptor Ki for human vasopressin V1a receptor.
The nature of data set [14]: Clearance in dog. Conditions: in vivo. The format is ADME, organism-based, Canis lupus familiaris.
Data set [15] has as its system Homo sapiens. The data set is described as follows: Toxicity in human assessed as tolerated dosed. The format is organism-based. As to conditions: in vivo.
Data set [16] in a line: Half life in human. Conditions: in vivo. In kind it is ADME, organism-based.
The nature of data set [17]: Solubility of the compound at pH 7.4. The format is physicochemical. Conditions: buffer.
The nature of data set [18]: Clearance in rat. The format is ADME, organism-based. Conditions: in vivo.
For data set [19], the species on record is Homo sapiens. Description: Selectivity ratio of Ki for human oxytocin receptor Ki for human vasopressin V2 receptor.
Data set [20] can be described thus: Clearance in human. In kind it is ADME, organism-based. As to conditions: in vivo.
Data set [21] can be described thus: Oral bioavailability in human. The format is ADME, organism-based. As to conditions: in vivo.
Data set [22] deals with T3, Vasopressin V1b receptor (Homo sapiens, UniProt P47901).
T3 sequence (P47901 whole entry): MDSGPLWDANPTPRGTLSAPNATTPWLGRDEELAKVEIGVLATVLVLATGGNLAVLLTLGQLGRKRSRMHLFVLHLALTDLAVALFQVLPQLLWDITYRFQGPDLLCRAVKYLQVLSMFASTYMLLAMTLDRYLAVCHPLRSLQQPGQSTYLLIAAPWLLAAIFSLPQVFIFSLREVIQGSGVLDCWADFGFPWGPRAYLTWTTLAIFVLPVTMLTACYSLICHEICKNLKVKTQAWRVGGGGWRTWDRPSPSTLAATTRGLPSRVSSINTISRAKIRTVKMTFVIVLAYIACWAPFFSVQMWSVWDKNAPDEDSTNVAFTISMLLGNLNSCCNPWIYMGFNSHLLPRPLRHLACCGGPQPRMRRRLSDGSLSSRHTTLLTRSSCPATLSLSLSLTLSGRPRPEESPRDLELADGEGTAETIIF
Description: Displacement of [3H]vasopressin from human vasopressin V1b receptor expressed in CHO cells. In kind it is cell-based.

≈ marks a conversion by molar mass, not a printed value.

Vasopressin V1a receptor (Homo sapiens, UniProt P37288), sequence (P37288 whole entry): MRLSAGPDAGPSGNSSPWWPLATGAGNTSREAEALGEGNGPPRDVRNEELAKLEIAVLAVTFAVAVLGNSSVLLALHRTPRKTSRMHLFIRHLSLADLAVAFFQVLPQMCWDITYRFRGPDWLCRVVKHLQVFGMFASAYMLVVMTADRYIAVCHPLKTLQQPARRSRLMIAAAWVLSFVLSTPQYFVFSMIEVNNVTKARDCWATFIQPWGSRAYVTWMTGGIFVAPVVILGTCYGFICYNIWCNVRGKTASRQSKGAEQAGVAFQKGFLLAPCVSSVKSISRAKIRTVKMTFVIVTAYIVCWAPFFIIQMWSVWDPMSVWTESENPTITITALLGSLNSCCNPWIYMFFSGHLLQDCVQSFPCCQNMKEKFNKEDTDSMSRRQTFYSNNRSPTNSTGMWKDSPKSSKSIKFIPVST

For `CO/N=C1/C[C@@H](CO)N(C(=O)c2ccc(-c3ccccc3C)cc2)C1` [NOLASIBAN], in data set [1], the fraction unbound is 0.29. Besides, the figures for the Ki in data set [2] and in data set [4] were 210 nM and 330 nM, respectively. In data set [3], the bioavailability turned out to be 55%. For the same compound, the inhibition in vivo at 60 mg/kg in [5] turned out to be 40%. This compound showed an inhibition in vivo at 30 mg/kg in [6] of 51%. Moreover, the ED50 in data set [7] stood at 30 mg/kg.
In the case of `CCN(Cc1cccnc1)C(=O)c1ccc(Cl)c([C@]2(C)C(=O)N(Cc3ccc(OC)cc3OC)c3ccc(Cl)cc32)c1`, the Kb in data set [8] was 3.39 nM. The inhibition constant (Ki) was greater than 1000 nM in [9]; 99 nM in data set [10]; 1.6 nM in data set [2]; greater than 1000 nM in data set [11]; 143 nM in [4]. In data set [12], this compound came in with an IC50 of 0.5 nM.
Take `COCc1nnc(N2CC(Oc3ccc(F)cc3Cl)C2)n1-c1ccc(OC)nc1`: the figures for the Ratio Ki in [13] and in data set [19] were 118 and 1050, respectively. Moreover, the clearance in data set [14] was 8 mL/min/kg; in data set [18], 36 mL/min/kg; in [20], greater than 8 mL/min/kg. For the same compound, in data set [15], the Activity is given as 0.3 mg. The half-life in data set [16] is 12 h. For the same compound, the solubility in data set [17] came to 59 µg/mL (≈ 141 µM). In [21], this compound showed a bioavailability of 80%. In [22], this compound showed a Ki greater than 10000 nM.

For orientation: Ki means the equilibrium dissociation constant of an inhibitor or competing ligand from its target. Low values mean tighter binding, high ones weaker binding. For orientation: bioavailability means dose-corrected exposure relative to a reference, in per cent. What is called inhibition in vivo is the share of the control response that was lost under treatment. A high value points to strong suppression. The ED50 is the midpoint of the dose-response relation. Lower therefore signals greater potency. For orientation: IC50 means the concentration needed to halve the response being measured. In general, clearance refers to the volume of plasma or blood freed of the substance per unit of time. Lower therefore signals a low capacity for elimination. What is called half-life is the time in which the quantity being followed falls by half. Low values mean fast loss, high ones slow loss. Broadly, the solubility is the concentration that dissolves in the medium under given conditions. A low value points to a poorly soluble substance.

For the origin of these results see ChEMBL document CHEMBL1250454, “Oral oxytocin antagonists” (J Med Chem, 2010).
